Data set [1] deals with T1, recombinant Neprilysin (Homo sapiens, UniProt P08473).
T1 construct: purchased R&D Systems 1182-ZNC-010
Briefly: Proteolytic resistance to neprilysin (% remaining peptide, RP-HPLC AUC). It is filed as in vitro ADME. Conditions: t = 0 (baseline); 37° C., pH 8.3; enzyme:peptide ~1:33 for non-lipidated, ~1:2.5 for lipidated peptides.
Procedure: Ratio enzyme (units):peptide (moles) ˜1:33. […] Ratio enzyme (units):peptide (moles) ˜1:2.5.
15 μL aliquots (˜15 ng initial peptide) of the peptide-enzyme mixture were periodically withdrawn (t=0, 30 mins, 1 hr, 2 hr, 4 hr, 8 hr, 24 hr) and quenched immediately by addition to an equal volume (15 μL) of 5% TFA (v/v) in 1:1 water/acetonitrile to arrest proteolytic activity. 20 μL aliquots (˜10 ng initial peptide) were analyzed by LC/MS and/or analytical RP-HPLC as follows: LC/MS method: Agilent Polaris C8-A column (4.6×100 mm, 3 micron) eluted with a linear binary gradient of 10-90% MeCN (0.1% TFA v/v) in water (0.1% TFA v/v) over 30 mins at 1.5 mL min-1 at ambient temperature with detection by both UV absorption at 210 nm and ionization using a Waters 3100 mass detector (ESI+ mode). Peptide fragments deriving from enzymatic hydrolysis were identified by molecular weight, allowing location of the site of cleavage. Analytical RP-HPLC method: Agilent Polaris C8-A column (4.6×100 mm, 3 micron) eluted with a linear binary gradient of 10-90% MeCN (0.1% TFA v/v) in water (0.1% TFA v/v) over either 10 or 15 mins at 1.5 mL min^−1 at 40° C. with detection by UV absorption at 210 nm. Manual integration (AUC) allowed estimation of remaining intact peptide over the time course of the experiment.
25 μL aliquots (˜6 μg initial peptide) were analyzed by LC/MS and/or analytical RP-HPLC as follows: LC/MS method: Agilent Polaris C8-A column (4.6×100 mm, 3 micron) eluted with a linear binary gradient of 10-90% MeCN (0.1% TFA v/v) in water (0.1% TFA v/v) over 30 mins at 1.5 mL min^−1 at ambient temperature with detection by both UV absorption at 210 nm and ionization using a Waters 3100 mass detector (ESI^+ mode). Peptide fragments deriving from enzymatic hydrolysis were identified by molecular weight, allowing location of the site of cleavage. Analytical RP-HPLC method: Agilent Polaris C8-A column (4.6×100 mm, 3 micron) eluted with a linear binary gradient of 10-90% MeCN (0.1% TFA v/v) in water (0.1% TFA v/v) over either 10 or 15 mins at 1.5 mL min^−1 at 40° C. with detection by UV absorption at 210 nm. Manual integration (AUC) allowed estimation of remaining intact peptide over the time course of the experiment.

Data set [2] relates to FASSIF/Pancreatin® activated with 100 μg/mL human enterokinase. Briefly: Proteolytic resistance to FASSIF/Pancreatin following full zymogen activation with enterokinase. The conditions noted are these: t = 0; 37° C. It is filed as in vitro ADME. As for the experimental part:
A fresh suspension of FASSIF/P (Fasted-State Simulated Intestinal Fluid+USP Pancreatin®) was prepared according to that described by Galia, Nicolaides, Hörter, Lobenberg, Reppas and Dressman: Pharm. […] To the resulting preparation was added human enterokinase (100 μg/mL) to ensure the potential for full zymogen activity of the mixture which was used immediately without storage. Peptides for evaluation (1.0 mg, ˜250 nmoles) were initially dissolved in pre-warmed FASSIF without Pancreatin® (200 μL) to which was added pre-warmed fresh FASSIF/Pancreatin® ([…]) to initiate potential digestion. Following momentary vortexing of the Eppendorf reaction tube the mixture was incubated at 37° C. in a thermostatic waterbath for the duration of the experiment. 25 μL aliquots of the co-incubated peptide-enzyme mixture were periodically withdrawn (t=0, 5 m, 10 m, 15 m, 30 m, 1 h, 2 h) and quenched immediately by addition to a solution of 10% TFA in 1:1 water/acetonitrile (75 μL) to arrest proteolytic activity.

Data set [3] deals with T2, porcine pancreatic pepsin (Sus scrofa, UniProt P00791).
T2 construct: purchased Sigma P7012
Briefly: Proteolytic resistance to pepsin (% remaining intact peptide, RP-HPLC AUC). It is filed as in vitro ADME. Conditions: t = 0; 37° C., pH 2.0.

Data set [4] has as its system FASSIF/P (Fasted-State Simulated Intestinal Fluid+USP Pancreatin®). Briefly: Proteolytic resistance to fasted-state simulated intestinal fluid (FASSIF/Pancreatin). It is filed as in vitro ADME. Conditions: t = 0; 37° C. On the procedure: (§1) A fresh suspension of FASSIF/P (Fasted-State Simulated Intestinal Fluid+USP Pancreatin®) was prepared according to that described by Galia, Nicolaides, Hörter, Lobenberg, Reppas and Dressman: Pharm. Res. 15 (1998) 698-705. The resulting preparation is proteolytically equivalent to ˜375 units/mL (375 kU/L) and was used immediately without storage. Peptides for evaluation (1.0 mg, ˜250 nmoles) were initially dissolved in pre-warmed FASSIF without Pancreatin® (200 μL) to which was added pre-warmed fresh FASSIF/Pancreatin® (100 μL) to initiate potential digestion. Following momentary vortexing of the Eppendorf reaction tube the mixture was incubated at 37° C. in a thermostatic waterbath for the duration of the experiment. 25 μL aliquots of the co-incubated peptide-enzyme mixture were periodically withdrawn (t=0, 5 m, 10 m, 15 m, 30 m, 1 h, 2 h) and quenched immediately by addition to a solution of 10% TFA in 1:1 water/acetonitrile (75 μL) to arrest proteolytic activity.

Experiment in data set [5]: as above
It is filed as in vitro ADME. Conditions: 37° C., read-out: Percentage remaining intact peptide (AUC by RP-HPLC) upon incubation with fasted-state simulated intestinal fluid (FASSIF/P); for remaining at 10 min, […]: t = 10 m; for remaining at 0.25 h, […]: t = 15 m; for remaining at 0.5 h, […]: t = 30 m; for remaining at 2 h, […]: t = 2 h. On the procedure: as §1

Data set [6] addresses T3, human glucagon receptor (GCGR) (Homo sapiens, UniProt P47871).
T3 construct: expressed in transfected cells; host or cells: HEK293 cells or CHO cells
Briefly: cAMP assay, human GCGR cells. It is filed as cell-based. Conditions: Table 9, bis-lipidated peptides. In outline:
(§2)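 Peptide-stimulated cAMP measured by two-step HTRF after a 30 min room-temperature incubation with receptor-expressing cells (hGLP-1R, hGIPR at 1×10^5 cells/ml; hGCGR at 2×10^5 cells/ml). Duplicate dilutions; EC50 from 4-parameter logistic fit of % Delta F.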
For orientation: Cyclic AMP is a second messenger, typically raised through Gs and lowered through Gi signalling.

Data set [7] has as its target T4, human glucose-dependent insulinotropic peptide receptor (GIPR) (Homo sapiens, UniProt P48546).
T4 construct: expressed in transfected cells; host or cells: HEK293 cells or CHO cells
T4 sequence (P48546 22-466): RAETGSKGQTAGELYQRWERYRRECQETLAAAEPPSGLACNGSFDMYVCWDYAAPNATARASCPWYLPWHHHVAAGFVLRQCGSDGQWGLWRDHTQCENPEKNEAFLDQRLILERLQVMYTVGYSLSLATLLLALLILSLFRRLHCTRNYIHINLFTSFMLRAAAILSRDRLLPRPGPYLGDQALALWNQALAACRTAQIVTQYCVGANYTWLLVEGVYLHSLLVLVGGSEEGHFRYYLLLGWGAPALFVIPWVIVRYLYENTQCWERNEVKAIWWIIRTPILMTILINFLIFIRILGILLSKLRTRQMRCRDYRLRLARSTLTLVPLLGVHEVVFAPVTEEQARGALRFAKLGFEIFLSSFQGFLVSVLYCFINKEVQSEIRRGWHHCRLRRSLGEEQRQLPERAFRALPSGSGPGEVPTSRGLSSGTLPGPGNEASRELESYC
Briefly: cAMP assay, human GIPR cells. Conditions: Table 9, bis-lipidated peptides. It is filed as cell-based. An outline of the steps:
as §2

For data set [8], the system named is recombinant α-chymotrypsin. Briefly: Proteolytic resistance to α-chymotrypsin (% remaining intact peptide, RP-HPLC AUC). The conditions noted are these: t = 0; 37° C., pH 7.8.
Procedure: (§3) Ratio enzyme (units):peptide (μmoles) ˜1:33. […] Ratio enzyme (units):peptide (μmoles) ˜1:2.5.
(§4) 15 μL aliquots (˜15 μg initial peptide) of the peptide-enzyme mixture are periodically withdrawn (t=0, 30 mins, 1 hr, 2 hr, 4 hr, 8 hr, 24 hr) and quenched immediately by addition to an equal volume (15 μL) of 5% TFA (v/v) in 1:1 water/acetonitrile to arrest proteolytic activity. 20 μL aliquots (˜10 μg initial peptide) are analysed by LC/MS and/or analytical RP-HPLC as follows: LC/MS method: Agilent Polaris C8-A column (4.6×100 mm, 3 micron) elutes with a linear binary gradient of 10-90% MeCN (0.1% TFA v/v) in water (0.1% TFA v/v) over 30 mins at 1.5 mL min^−1 at ambient temperature with detection by both UV absorption at 210 nm and ionization using a Waters 3100 mass detector (ESI^+ mode). Peptide fragments deriving from enzymatic hydrolysis are identified by molecular weight, allowing location of the site of cleavage. Analytical RP-HPLC method: Agilent Polaris C8-A column (4.6×100 mm, 3 micron) elutes with a linear binary gradient of 10-90% MeCN (0.1% TFA v/v) in water (0.1% TFA v/v) over either 10 or 15 mins at 1.5 mL min^−1 at 40° C. with detection by UV absorption at 210 nm. Manual integration (AUC) allows estimation of remaining intact peptide over the time course of the experiment.
(§5) 25 μL aliquots (˜6 μg initial peptide) are analysed by LC/MS and/or analytical RP-HPLC as follows: LC/MS method: Agilent Polaris C8-A column (4.6×100 mm, 3 micron) elutes with a linear binary gradient of 10-90% MeCN (0.1% TFA v/v) in water (0.1% TFA v/v) over 30 mins at 1.5 mL min^−1 at ambient temperature with detection by both UV absorption at 210 nm and ionization using a Waters 3100 mass detector (ESI±mode). Peptide fragments deriving from enzymatic hydrolysis are identified by molecular weight, allowing location of the site of cleavage. Analytical RP-HPLC method: Agilent Polaris C8-A column (4.6×100 mm, 3 micron) elutes with a linear binary gradient of 10-90% MeCN (0.1% TFA v/v) in water (0.1% TFA v/v) over either 10 or 15 mins at 1.5 mL min^−1 at 40° C. with detection by UV absorption at 210 nm. Manual integration (AUC) allows estimation of remaining intact peptide over the time course of the experiment.
Experiment in data set [9]: as above
Conditions: recombinant α-chymotrypsin in assay buffer, pH 7.8.
Procedure: as §3, §4, §5

Data set [10] concerns the target porcine pancreatic trypsin (Sus scrofa, UniProt P00761). In words: Proteolytic resistance to trypsin (% remaining intact peptide, RP-HPLC AUC). Conditions: t = 0; 37° C., pH 7.8. It is filed as in vitro ADME.
Procedure: Trypsin: Lyophilized porcine pancreatic trypsin (Sigma: T1426) was reconstituted to afford a solution of 100 μg/mL (˜300 units/mL) in assay buffer (50 mM Tris, 10 mM CaCl2), 150 mM NaCl, 1 mM HCl, adjusted to pH 7.8) to give the enzyme stock solution. […] Ratio enzyme (units):peptide (μmoles) ˜1:11. […] Ratio enzyme (units):peptide (μ moles) ˜1.2:1.
Lyophilized porcine pancreatic trypsin (Sigma: T7409) was reconstituted to 200 μg/mL (˜300 units/mL) in assay buffer (50 mM Tris, 10 mM CaCl2), 150 mM NaCl, 1 mM HCl, adjusted to pH 7.8) to give the enzyme stock solution. […] 15 μL aliquots (˜15 μg initial peptide) of the peptide-enzyme mixture were periodically withdrawn (t=0, 30 mins, 1 hr, 2 hr, 4 hr, 8 hr, 24 hr) and quenched immediately by addition to an equal volume (15 μL) of 5% TFA (v/v) in 1:1 water/acetonitrile to arrest proteolytic activity. 20 μL aliquots (˜10 μg initial peptide) were analysed by LC/MS and/or analytical RP-HPLC as follows: LC/MS method: Agilent Polaris C8-A column (4.6×100 mm, 3 micron) eluted with a linear binary gradient of 10-90% MeCN (0.1% TFA v/v) in water (0.1% TFA v/v) over 30 mins at 1.5 mL min^−1 at ambient temperature with detection by both UV absorption at 210 nm and ionization using a Waters 3100 mass detector (ESI^+ mode). Peptide fragments deriving from enzymatic hydrolysis were identified by molecular weight, allowing location of the site of cleavage. Analytical RP-HPLC method: Agilent Polaris C8-A column (4.6×100 mm, 3 micron) eluted with a linear binary gradient of 10-90% MeCN (0.1% TFA v/v) in water (0.1% TFA v/v) over either 10 or 15 mins at 1.5 mL min^−1 at 40° C. with detection by UV absorption at 210 nm. Manual integration (AUC) allowed estimation of remaining intact peptide over the time course of the experiment.
Lyophilized porcine pancreatic trypsin (Sigma: T7409) was reconstituted to 200 μg/mL (˜300 units/mL) in assay buffer (50 mM Tris, 10 mM CaCl2), 150 mM NaCl, 1 mM HCl, adjusted to pH 7.8) to give the enzyme stock solution. […] 25 μL aliquots (˜17 μg initial peptide) of the peptide-enzyme mixture were periodically withdrawn (t=0, 30 mins, 1 hr, 2 hr, 4 hr, 8 hr, 24 hr) and quenched immediately by addition to an equal volume (25 μL) of 5% TFA (v/v) in 1:1 water/acetonitrile to arrest proteolytic activity. 25 μL aliquots (˜8 μg initial peptide) were analysed by LC/MS and/or analytical RP-HPLC as follows: LC/MS method: Agilent Polaris C8-A column (4.6×100 mm, 3 micron) eluted with a linear binary gradient of 10-90% MeCN (0.1% TFA v/v) in water (0.1% TFA v/v) over 30 mins at 1.5 mL min^−1 at ambient temperature with detection by both UV absorption at 210 nm and ionization using a Waters 3100 mass detector (ESI^+ mode). Peptide fragments deriving from enzymatic hydrolysis were identified by molecular weight, allowing location of the site of cleavage. Analytical RP-HPLC method: Agilent Polaris C8-A column (4.6×100 mm, 3 micron) eluted with a linear binary gradient of 10-90% MeCN (0.1% TFA v/v) in water (0.1% TFA v/v) over either 10 or 15 mins at 1.5 mL min^−1 at 40° C. with detection by UV absorption at 210 nm. Manual integration (AUC) allowed estimation of remaining intact peptide over the time course of the experiment.
In data set [11] the target is T5, GLP-1R (INS1e cells) (Rattus norvegicus, UniProt P32301).
T5 construct: endogenous in cells; host or cells: INS1e cells
T5 sequence (P32301 22-463): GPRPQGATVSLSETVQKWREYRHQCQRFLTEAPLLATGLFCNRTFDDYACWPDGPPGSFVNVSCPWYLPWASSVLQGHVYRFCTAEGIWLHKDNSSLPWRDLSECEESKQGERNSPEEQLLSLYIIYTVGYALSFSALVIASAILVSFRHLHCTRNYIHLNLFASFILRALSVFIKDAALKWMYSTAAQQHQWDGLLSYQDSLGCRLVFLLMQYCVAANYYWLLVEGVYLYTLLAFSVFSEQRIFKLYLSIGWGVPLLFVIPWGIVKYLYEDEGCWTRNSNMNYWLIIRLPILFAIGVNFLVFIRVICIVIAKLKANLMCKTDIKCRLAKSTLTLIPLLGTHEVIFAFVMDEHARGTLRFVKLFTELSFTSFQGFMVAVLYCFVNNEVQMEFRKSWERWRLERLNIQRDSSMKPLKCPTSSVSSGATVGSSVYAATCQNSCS
Briefly: INS1e assay, cAMP activity at GLP-1R. It is filed as cell-based. Conditions: Table 10, bis-lipidated peptides, mean of n1 and n2, read-out: INS1e assay EC50 Mean pM GLP-1R.

The target in data set [12] is T6, human GLP-1 receptor (GLP-1R) (Homo sapiens, UniProt P43220).
T6 construct: expressed in transfected cells; host or cells: HEK293 cells or CHO cells
Briefly: cAMP assay, human GLP-1R cells. It is filed as cell-based. Conditions: Table 9, bis-lipidated peptides; mean of n1 and n2; read-out: Primary assay EC50 Mean pM GLP-1R. In outline:
as §2

[13] abbreviates: first replicate, read-out: Primary assay EC50 Gluc-R (n1).
[14] abbreviates: second replicate, read-out: Primary assay EC50 Gluc-R (n2).
Where [15] appears, read: first replicate, read-out: Primary assay EC50 GIP-R (n1).
Where [16] appears, read: second replicate, read-out: Primary assay EC50 GIP-R (n2).

Each structure is given as a SMILES string. pEC50: −log10 of the molar value. Read-outs that look alike come from different tables or passages of the source. Numbered stars: 1 amine (or outer) side, 2 acyl side, 3 side chain; on linkers, the order of the positions; unused ones are H or OH. Square brackets hold non-standard residues; d marks the D form. Side chains are listed from the residue outwards. Peptide text beside a SMILES is read from it. * marks the point of attachment. γGlu = O=C(O)[C@H](CCC(=O)[*:2])N[*:1]; αMeF = C[C@](N)(Cc1ccccc1)C(=O)O; αMeK = C[C@](N)(CCCCN)C(=O)O; Lauroyl = CCCCCCCCCCCC(=O)*; αMeS = C[C@](N)(CO)C(=O)O; AEEA = NCCOCCOCC(=O)O; Aib = CC(C)(N)C(=O)O

T3 sequence (P47871 26-477): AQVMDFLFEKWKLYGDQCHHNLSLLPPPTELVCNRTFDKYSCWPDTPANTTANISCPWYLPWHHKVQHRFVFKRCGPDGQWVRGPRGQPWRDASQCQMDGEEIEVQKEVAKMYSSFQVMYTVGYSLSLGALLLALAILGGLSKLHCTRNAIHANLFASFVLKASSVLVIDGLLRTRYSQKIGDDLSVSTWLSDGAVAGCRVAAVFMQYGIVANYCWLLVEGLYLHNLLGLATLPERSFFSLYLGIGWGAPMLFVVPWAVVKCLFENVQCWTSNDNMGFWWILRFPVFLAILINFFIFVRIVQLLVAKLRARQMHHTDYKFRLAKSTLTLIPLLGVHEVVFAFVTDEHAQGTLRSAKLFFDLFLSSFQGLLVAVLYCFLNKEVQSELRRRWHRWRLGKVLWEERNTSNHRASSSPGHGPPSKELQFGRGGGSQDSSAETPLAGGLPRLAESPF
T1 sequence (P08473 whole entry): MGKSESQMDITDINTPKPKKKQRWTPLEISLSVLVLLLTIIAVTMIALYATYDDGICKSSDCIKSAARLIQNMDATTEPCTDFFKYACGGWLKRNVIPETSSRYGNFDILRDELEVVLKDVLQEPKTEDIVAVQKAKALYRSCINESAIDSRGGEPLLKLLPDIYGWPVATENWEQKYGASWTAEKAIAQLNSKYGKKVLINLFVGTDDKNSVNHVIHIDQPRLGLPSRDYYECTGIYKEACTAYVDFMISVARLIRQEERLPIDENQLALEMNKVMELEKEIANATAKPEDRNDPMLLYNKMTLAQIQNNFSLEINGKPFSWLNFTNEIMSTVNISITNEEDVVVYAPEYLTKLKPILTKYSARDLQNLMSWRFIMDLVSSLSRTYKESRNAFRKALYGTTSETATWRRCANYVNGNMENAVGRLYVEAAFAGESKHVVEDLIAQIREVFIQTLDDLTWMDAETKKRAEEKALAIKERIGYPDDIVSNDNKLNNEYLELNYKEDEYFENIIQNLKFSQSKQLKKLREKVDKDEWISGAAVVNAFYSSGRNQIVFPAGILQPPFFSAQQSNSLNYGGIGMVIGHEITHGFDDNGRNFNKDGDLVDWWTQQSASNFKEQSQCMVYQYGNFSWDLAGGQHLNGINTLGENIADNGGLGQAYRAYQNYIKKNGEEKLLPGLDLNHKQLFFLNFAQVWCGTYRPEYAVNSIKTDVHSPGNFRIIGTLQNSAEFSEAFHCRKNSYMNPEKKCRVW
Chain of porcine pancreatic trypsin (P00761 9-231): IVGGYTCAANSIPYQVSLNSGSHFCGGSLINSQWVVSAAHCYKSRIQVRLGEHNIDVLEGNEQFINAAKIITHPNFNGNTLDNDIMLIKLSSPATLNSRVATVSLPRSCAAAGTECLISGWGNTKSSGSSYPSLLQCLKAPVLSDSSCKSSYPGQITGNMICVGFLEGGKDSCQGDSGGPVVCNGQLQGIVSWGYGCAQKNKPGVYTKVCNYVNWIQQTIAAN
T6 sequence (P43220 24-463): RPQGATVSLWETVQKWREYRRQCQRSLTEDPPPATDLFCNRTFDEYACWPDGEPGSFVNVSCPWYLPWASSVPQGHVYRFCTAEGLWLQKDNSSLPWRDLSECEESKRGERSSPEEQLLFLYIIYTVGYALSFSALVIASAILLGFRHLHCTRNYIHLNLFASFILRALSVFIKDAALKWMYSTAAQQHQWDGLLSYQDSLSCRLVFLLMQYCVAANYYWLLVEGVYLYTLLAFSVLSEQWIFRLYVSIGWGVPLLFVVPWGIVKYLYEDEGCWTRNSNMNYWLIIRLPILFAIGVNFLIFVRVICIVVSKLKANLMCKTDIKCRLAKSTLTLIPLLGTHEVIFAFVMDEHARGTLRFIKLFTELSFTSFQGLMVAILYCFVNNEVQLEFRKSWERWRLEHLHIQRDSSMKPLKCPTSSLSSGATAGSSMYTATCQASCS
T2 sequence (P00791 60-385): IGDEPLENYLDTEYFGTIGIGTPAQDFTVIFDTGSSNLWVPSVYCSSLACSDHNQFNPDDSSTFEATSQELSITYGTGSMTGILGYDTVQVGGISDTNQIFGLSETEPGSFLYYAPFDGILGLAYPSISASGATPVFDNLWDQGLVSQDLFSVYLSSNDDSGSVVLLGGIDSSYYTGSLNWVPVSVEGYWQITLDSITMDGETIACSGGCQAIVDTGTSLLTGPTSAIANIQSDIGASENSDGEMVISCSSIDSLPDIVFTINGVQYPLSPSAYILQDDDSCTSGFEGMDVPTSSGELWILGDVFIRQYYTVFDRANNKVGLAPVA

On to `CCCCCCCCCCCC(=O)N[C@@H](CCC(=O)NCCOCCOCC(=O)NCCOCCOCC(=O)NCCCC[C@H](NC(=O)[C@H](C)NC(=O)[C@@H](NC(=O)[C@H](Cc1ccccc1)NC(=O)[C@H](CCC(=O)O)NC(=O)[C@](C)(CCCCN)NC(=O)[C@H](C)NC(=O)[C@H](C)NC(=O)[C@H](CCC(=O)O)NC(=O)CNC(=O)[C@H](CCC(=O)O)NC(=O)[C@H](CC(C)C)NC(=O)[C@H](CCCCNC(=O)COCCOCCNC(=O)COCCOCCNC(=O)CC[C@H](NC(=O)CCCCCCCCCCC)C(=O)O)NC(=O)[C@H](CO)NC(=O)[C@](C)(CO)NC(=O)[C@@H](NC(=O)[C@H](CC(=O)O)NC(=O)[C@H](CO)NC(=O)[C@@H](NC(=O)[C@](C)(Cc1ccccc1)NC(=O)[C@H](CO)NC(=O)CNC(=O)[C@H](CCC(=O)O)NC(=O)C(C)(C)NC(=O)[C@@H](N)Cc1c[nH]cn1)[C@@H](C)O)C(C)C)[C@@H](C)CC)C(=O)N[C@H](C(=O)N[C@H](C(=O)N[C@@H](CCC(=O)O)C(=O)NCC(=O)NCC(N)=O)C(C)C)C(C)C)C(=O)O` [compound 263] (H-H[Aib]EGS[αMeF]TSDV[αMeS]SK([AEEA-AEEA-γGlu-Lauroyl])LEGEAA[αMeK]EFIAK([AEEA-AEEA-γGlu-Lauroyl])VVEGG-NH2), for which the “Percentage remaining peptide (AUC at specified time-point by RP-HPLC) upon incubation with neprilysin, t = 0” value in data set [1] stood at 100%. In data set [2], the “Percentage remaining intact peptide (AUC by RP-HPLC) upon incubation with FASSIF activated with 100 μg/mL enterokinase” value is on record as 100%. Moreover, in data set [3], the “Percentage remaining intact peptide (AUC by RP-HPLC) upon incubation with pepsin” value is given as 100%. Moreover, in data set [4], the “Percentage remaining intact peptide (AUC by RP-HPLC) upon incubation with fasted-state simulated intestinal fluid (FASSIF/P)” value was 100%. Further, in [5], the remaining at 10 min, […] is 85.6%; the remaining at 0.25 h, […] was 76.8%; the remaining at 0.5 h, […] was 57.6%; the remaining at 2 h, […] is 7.8%. Further, in data set [6] (setting [13]), the pEC50 was at most 7.67. The pEC50 in [6] (setting [14]) is at most 7.67. Moreover, in [7] (setting [15]), the pEC50 is at most 7.67. The pEC50 in data set [7] (setting [16]) is at most 7.67. For the same molecule, the “Percentage remaining intact peptide (AUC by RP-HPLC) upon incubation with α-chymotrypsin” value in data set [8] worked out at 100%. In data set [9], the remaining at 0.5 h turned out to be 88.1%, the remaining at 1 h came to 93.9%, the remaining at 4 h came to 93.5% and the remaining at 8 h is 95%. Moreover, in [9], the remaining at 24 h is 92.3%. For the same molecule, in [10], the “Percentage remaining intact peptide (AUC by RP-HPLC) upon incubation with trypsin” value amounted to 100.0%.

Take `CCCCCCCCCCCC(=O)N[C@@H](CCC(=O)NCCOCCOCC(=O)NCCOCCOCC(=O)NCCCC[C@H](NC(=O)[C@H](C)NC(=O)[C@@H](NC(=O)[C@](C)(Cc1ccccc1)NC(=O)[C@H](CCC(=O)O)NC(=O)[C@](C)(CCCCN)NC(=O)[C@H](C)NC(=O)[C@H](C)NC(=O)[C@H](CCC(=O)O)NC(=O)CNC(=O)[C@H](CCC(=O)O)NC(=O)[C@H](CC(C)C)NC(=O)[C@H](CCCCNC(=O)COCCOCCNC(=O)COCCOCCNC(=O)CC[C@H](NC(=O)CCCCCCCCCCC)C(=O)O)NC(=O)[C@H](CO)NC(=O)[C@](C)(CO)NC(=O)[C@@H](NC(=O)[C@H](CC(=O)O)NC(=O)[C@H](CO)NC(=O)[C@@H](NC(=O)[C@](C)(Cc1ccccc1)NC(=O)[C@H](CO)NC(=O)CNC(=O)[C@H](CCC(=O)O)NC(=O)C(C)(C)NC(=O)[C@@H](N)Cc1c[nH]cn1)[C@@H](C)O)C(C)C)[C@@H](C)CC)C(=O)N[C@H](C(=O)N[C@H](C(=O)N[C@@H](CCC(=O)O)C(=O)NCC(=O)NCC(N)=O)C(C)C)C(C)C)C(=O)O` [compound 405] (H-H[Aib]EGS[αMeF]TSDV[αMeS]SK([AEEA-AEEA-γGlu-Lauroyl])LEGEAA[αMeK]E[αMeF]IAK([AEEA-AEEA-γGlu-Lauroyl])VVEGG-NH2; N-terminus assumed): in data set [2], the “Percentage remaining intact peptide (AUC by RP-HPLC) upon incubation with FASSIF activated with 100 μg/mL enterokinase” value is 100%. In addition, the “Percentage remaining intact peptide (AUC by RP-HPLC) upon incubation with fasted-state simulated intestinal fluid (FASSIF/P)” value in [4] is 100%. The remaining at 5 min, […] in [5] (t = 5 m) is 99.5%. Besides, the remaining at 10 min, […] in [5] is 99%. Moreover, the remaining at 0.25 h, […] in [5] was 99.4%. Further, the remaining at 0.5 h, […] in [5] is 95.7%. The remaining at 1 h, […] in data set [5] (t = 1 h) was 88.7%. Further, the remaining at 2 h, […] in data set [5] was 60.4%. Moreover, the pEC50 in data set [6] (setting [13]), in data set [6] (setting [14]), in [7] (setting [15]) and in data set [7] (setting [16]) was at most 7.67 in each case. Moreover, the results for the EC50 in data set [11] and in [12] were 116 pM and 3.9 pM, respectively.

The pEC50 is −log10 of the EC50, conventionally taken in molar units. As usually defined, the EC50 is the concentration that produces a half-maximal response.
